Laboratory results published in patent publication US20250163067A1, “NUCLEOBASE-SUBSTITUTED PIPERIDINYL-PYRIDINES AND RELATED COMPOUNDS AND THEIR USE IN TREATING DISEASES AND CONDITIONS” (K36 Therapeutics, Inc., priority 2023, published 2025).

Target: recombinant human NSD2 (Homo sapiens (Human), UniProt O96028)
Assay: NSD2 inhibitory activity, modified RBC HotSpot HMT Assay
Type: biochemical
Settings: recombinant human NSD2 (amino acids 2-end) 2 nM, chicken oligonucleosomes 0.05 mg/ml, 3H-SAM 1 μM, 1 hour at 30° C
Experimental: Exemplary compounds were tested for NSD2 inhibitory activity using a modified RBC HotSpot HMT Assay.
A reaction mixture was prepared by adding oligonucleosomes from Chicken (0.05 mg/ml) to freshly prepared reaction buffer containing 50 mM Tris-HCl (pH 8.5), 50 mM NaCl, 5 mM MgCl2, 0.01% Brij35, 1 mM DTT, and 1% DMSO followed by the addition of recombinant human NSD2, (amino acids 2-end) with N-terminal His tag (2 nM; GenBank Accession No. NM 001042424; MW=155.5 kDa; expressed in Sf9 insect cells) and gentle mixing. The test compounds were diluted in DMSO, added to the reaction mixture in nanoliter amounts by using Acoustic Technology (Echo 550, LabCyte Inc. Sunnyvale, CA) and incubated for 20 minutes at room temperature. The reaction was initiated by the addition of S-Adenosyl-L-[methyl-^3H] methionine (^3H-SAM; 1 μM), and the mixture was incubated for 1 hour at 30° C. The reaction mixture was delivered to filter paper and the methylated substrate was quantified by scintillation counting. Data analysis was performed using Excel and GraphPad Prism software for IC50 curve fits. For additional information on the histone methyltransferase assay, see, for example, Horiuchi K Y, et al., “Assay Development for Histone Methyltransferases,” Assay Drug Dev Technol. 2013 May; 11 (4): 227-36.

recombinant human NSD2, sequence (O96028 2-1365 limits assumed): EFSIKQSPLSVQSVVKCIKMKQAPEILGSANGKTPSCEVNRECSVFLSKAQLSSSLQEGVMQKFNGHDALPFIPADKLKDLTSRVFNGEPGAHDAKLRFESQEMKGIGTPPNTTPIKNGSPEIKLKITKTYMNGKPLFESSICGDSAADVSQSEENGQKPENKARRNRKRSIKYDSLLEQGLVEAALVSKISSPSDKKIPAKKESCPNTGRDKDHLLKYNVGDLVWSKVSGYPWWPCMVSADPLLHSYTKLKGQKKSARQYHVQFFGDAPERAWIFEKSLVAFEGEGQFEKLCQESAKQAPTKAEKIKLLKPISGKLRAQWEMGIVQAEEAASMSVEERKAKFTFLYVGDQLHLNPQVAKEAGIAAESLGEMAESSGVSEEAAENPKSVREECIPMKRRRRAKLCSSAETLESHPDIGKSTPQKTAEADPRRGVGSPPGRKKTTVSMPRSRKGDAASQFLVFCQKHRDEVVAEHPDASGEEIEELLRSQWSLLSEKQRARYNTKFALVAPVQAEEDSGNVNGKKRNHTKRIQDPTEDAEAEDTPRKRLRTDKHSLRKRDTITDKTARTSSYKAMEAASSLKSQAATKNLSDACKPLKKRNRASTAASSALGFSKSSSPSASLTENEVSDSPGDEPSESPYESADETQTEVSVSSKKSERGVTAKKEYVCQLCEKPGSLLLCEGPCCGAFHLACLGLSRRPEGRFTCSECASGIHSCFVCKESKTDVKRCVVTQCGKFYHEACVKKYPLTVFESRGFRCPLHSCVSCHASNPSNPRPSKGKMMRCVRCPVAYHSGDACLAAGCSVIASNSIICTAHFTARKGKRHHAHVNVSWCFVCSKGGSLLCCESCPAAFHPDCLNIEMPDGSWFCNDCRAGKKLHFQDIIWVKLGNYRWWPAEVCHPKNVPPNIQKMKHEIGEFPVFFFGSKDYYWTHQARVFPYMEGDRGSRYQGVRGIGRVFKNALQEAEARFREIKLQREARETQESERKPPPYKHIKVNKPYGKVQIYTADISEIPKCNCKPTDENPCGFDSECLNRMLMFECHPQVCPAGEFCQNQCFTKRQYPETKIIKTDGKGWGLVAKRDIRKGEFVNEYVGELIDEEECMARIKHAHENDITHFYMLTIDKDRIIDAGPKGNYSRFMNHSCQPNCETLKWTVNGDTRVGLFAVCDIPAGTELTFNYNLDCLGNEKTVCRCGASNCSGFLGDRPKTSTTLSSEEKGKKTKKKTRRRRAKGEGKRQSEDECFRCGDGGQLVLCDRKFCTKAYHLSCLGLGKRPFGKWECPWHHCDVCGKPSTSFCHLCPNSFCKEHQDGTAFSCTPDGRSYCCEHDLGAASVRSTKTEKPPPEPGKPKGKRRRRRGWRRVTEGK

IC50 [nM] | SMILES
≤ 1000 | COc1cc(F)c(-c2cc(Cn3cnc4cncnc43)c(N3CCC[C@](N)([C@H](O)C(F)F)C3)cn2)cc1F [IV-1]
> 1000 | COc1cc(F)c(-c2cc(Cn3cnc4ncncc43)c(N3CCC[C@](N)([C@H](O)C(F)F)C3)cn2)cc1F [IV-2]
> 1000 | COc1cc(F)c(-c2cc(Cn3ccc4cncnc43)c(N3CCC[C@](N)([C@H](O)C(F)F)C3)cn2)cc1F [IV-4]
≤ 1000 | COc1cc(F)c(-c2cc(Cn3ccc4ncncc43)c(N3CCC[C@](N)([C@H](O)C(F)F)C3)cn2)cc1F [IV-5]
> 1000 | COc1cc(F)c(-c2cc(Cn3cnc4ccccc43)c(N3CCC[C@](N)([C@H](O)C(F)F)C3)cn2)cc1F [IV-6]
> 1000 | COc1cc(F)c(-c2cc(Cn3cnc4nccnc43)c(N3CCC[C@](N)([C@H](O)C(F)F)C3)cn2)cc1F [IV-7]
> 1000 | COc1cc(F)c(-c2cc(Cn3ncc4ncncc43)c(N3CCC[C@](N)([C@H](O)C(F)F)C3)cn2)cc1F [IV-9]
> 1000 | COc1cc(F)c(-c2cc(Cn3ncc4cncnc43)c(N3CCC[C@](N)([C@H](O)C(F)F)C3)cn2)cc1F [IV-10]
> 1000 | COc1cc(F)c(-c2cc(Cn3ncc4nccnc43)c(N3CCC[C@](N)([C@H](O)C(F)F)C3)cn2)cc1F [IV-12]
> 1000 | COc1cc(F)c(-c2cc(Cn3ccc4nccnc43)c(N3CCC[C@](N)([C@H](O)C(F)F)C3)cn2)cc1F [IV-13]

Second part, the compound before the results:

SMILES | IC50 [nM]
COc1cc(F)c(-c2cc(Cc3cnc4c(N)nccn34)c(N3CCC[C@](N)([C@H](O)C(F)F)C3)cn2)cc1F [Compound I-4, (S)-1-((R)-3-AMINO-1-(4-((8-AMINOIMIDAZO [1,2-A]PYRAZIN-3-YL)METHYL)-6-(2,5-DIFLUORO-4-METHOXYPHENYL)PYRIDIN-3-YL)PIPERIDIN-3-YL)-2,2-DIFLUOROETHAN-1-OL] | ≤ 1000
COc1cc(F)c(-c2cc(CN3CCc4cncnc43)c(N3CCC[C@](N)([C@H](O)C(F)F)C3)cn2)cc1F [IV-3] | > 1000
COc1cc(F)c(-c2cc(Cn3cnc4cnncc43)c(N3CCC[C@](N)([C@H](O)C(F)F)C3)cn2)cc1F [IV-8] | > 1000
COc1cc(F)c(-c2cc(CN3Cc4nccnc4C3)c(N3CCC[C@](N)([C@H](O)C(F)F)C3)cn2)cc1F [IV-11] | > 1000
COc1cc(F)c(-c2cc(Cn3ccc4ncccc43)c(N3CCC[C@](N)([C@H](O)C(F)F)C3)cn2)cc1F [IV-14] | > 1000
COc1cc(F)c(-c2cc(Cn3ncc4cnccc43)c(N3CCC[C@](N)([C@H](O)C(F)F)C3)cn2)cc1F [IV-15] | > 1000
COc1cc(F)c(-c2cc(Cn3cnc4c(O)nc(N)nc43)c(N3CCC[C@](N)([C@H](O)C(F)F)C3)cn2)cc1F [IV-17] | > 1000
COc1cc(F)c(-c2cc(Cn3ccc(N)nc3=O)c(N3CCC[C@](N)([C@H](O)C(F)F)C3)cn2)cc1F [IV-18] | > 1000
COc1cc(F)c(-c2cc(CN3CCC(=O)NC3=O)c(N3CCC[C@](N)([C@H](O)C(F)F)C3)cn2)cc1F [IV-19] | > 1000
COc1cc(F)c(-c2cc(Cn3ccnc3)c(N3CCC[C@](N)([C@H](O)C(F)F)C3)cn2)cc1F [IV-20] | > 1000
COc1cc(F)c(-c2cc(Cn3ccnn3)c(N3CCC[C@](N)([C@H](O)C(F)F)C3)cn2)cc1F [IV-21] | > 1000
COc1cc(F)c(-c2cc(CN3CCNC3=O)c(N3CCC[C@](N)([C@H](O)C(F)F)C3)cn2)cc1F [IV-22] | > 1000
COc1cc(F)c(-c2cc(Cn3ccc4cnccc43)c(N3CCC[C@](N)([C@H](O)C(F)F)C3)cn2)cc1F [IV-23] | > 1000
COc1cc(F)c(-c2cc(CN3NCc4cnc(N)nc43)c(N3CCC[C@](N)([C@H](O)C(F)F)C3)cn2)cc1F [IV-24] | > 1000
COc1cc(F)c(-c2cc(CNc3cc4[nH]ccc4cn3)c(N3CCC[C@](N)([C@H](O)C(F)F)C3)cn2)cc1F [IV-28] | > 1000
COc1cc(F)c(-c2cc(Cn3cnnn3)c(N3CCC[C@](N)([C@H](O)C(F)F)C3)cn2)cc1F [IV-29] | > 1000
COc1cc(F)c(-c2cc(Cn3cnnc3)c(N3CCC[C@](N)([C@H](O)C(F)F)C3)cn2)cc1F [IV-30] | > 1000
